This passage reports MIC90 results from US20220127297A1, “Novel Antibacterial 3"-Derivatives Of 4,6-Disubstituted 2,5-Dideoxystreptamine Aminoglycoside Antibiotics” (AGILeBiotics B.V., priority 2018, published 2022).

Common to all, as to assay: MIC determination at Uppsala University
What all share (format): cell-based

Experiment [1] has as its system M. morgannii S49. Conditions: Morganella morganii, AAC(3)-IId, ANT(3″), APH(3″)-Ib, APH(3′)-Ia, APH(6)-Id. The source says: (§1) 3.4.1 MIC Determination at Uppsala University (Sweden)
(§2) Tested reference compounds. Amikacin disulfate (Cat. No. A1774, Sigma Aldrich), Apramycin sulfate (Cat. No. A2024, Sigma Aldrich) and Gentamicin sulfate (Cat. No. G1914, Sigma Aldrich).
(§3) Bacterial strains/isolates. All assayed laboratory and clinical strains (P. aeruginosa PA01, A. baumanii ATCC 19606, A. baumanii 195N(a), A. baumanii 48F, E. coli C1162, E. coli C1181, M. morgannii S49 and P. stuartii B8-1) were from the IMI ND4BB ENABLE consortium strain collection. ATCC laboratory strains were acquired directly from the American Type Culture Collection. Clinical strains used were previously published (M Juhas, et al. J. Antimicrob. Chemother., 74 (4), 944-952 (2019); D. Hughes et al., Antimicrob. Agents Chemother., 47 (10), 3222-3232 (2003)) and were resistance genotyped within the ENABLE consortium.
(§4) Culture media and equipment. Water (Thermo Scientific, R05819); Mueller-Hinton II broth (BD Ref. 212322); sterile round-bottom 96-well plates (Thermo Scientific, 262162); Sensititre Nephelometer (ThermoFisher Scientific, V3011); 0.5 McFarland Standard (ThermoFisher Scientific, E1041); sterile polyester film (VWR, 391-1251).
(§5) Compound preparation. MIC assay procedure follows the CLSI M07 standard method (Clinical and Laboratory Standards Institute (CLSI); Methods for dilution antimicrobial susceptibility tests for bacteria that grow aerobically; approved standard—eleventh edition, M07-A10, Vol. 38, No. 2, 2018). Test compounds were received as solids and were dissolved in water to a concentration of 10 mg/mL of active compound. […] This solution was serially diluted in 2-fold steps in the first 10 columns of sterile round-bottom 96-well plates, while the final two columns were filled with Mueller-Hinton II broth without added compound for use as positive and negative growth controls.
(§6) Inoculum preparation. Inoculums were prepared by suspending several colonies freshly streaked culture of test strains in 5 mL of sterile 0.9% NaCl. The cell density of the inoculum solution was assessed and adjusted using a Sensititre Nephelometer and a 0.5 McFarland Standard. The inoculum was diluted 1:100 in Mueller-Hinton II broth and 50 μL of this inoculum solution was added to 50 μL of the test compound solutions yielding a concentration range of 64-0.125 μg/mL. The plates were sealed with sterile polyester film and stationarily incubated at 37° C. for 18 hours.
(§7) MIC determination. The MIC value was determined by visual inspection of bacterial growth within 96-well plates. The lowest concentration completely inhibiting growth was reported as the MIC for each strain and compound combination.

The subject of experiment [2] is A. baumanii 195N (a). The conditions noted are these: Acinetobacter baumannii, AAC(3)Ia, ANT(3″)Ia, APH(3″)Ib, APH(3′)VI, APH(6)Id.
From the text: as §1, §2, §3, §4, §5, §6, §7

The subject of experiment [3] is P. stuartii B8-1. The conditions noted are these: Providencia stuartii, B81, AAC(3)-Ic, ANT (3″)Ia, APH(3′)-IIa, APH(3′)-IIb, APH(3′)-VI, APH(6)-Ic.
From the text: as §1, §2, §3, §4, §5, §6, §7

In experiment [4] the test system is E. coli C1181. Conditions: Escherichia coli, ANT(3″)-Ia, APH(3′)-Ia.
From the text: as §1, §2, §3, §4, §5, §6, §7

Experiment [5] relates to A. baumanii ATCC 19606. The conditions noted are these: Acinetobacter baumannii, ATCC19606, AMEs: WT.
From the text: as §1, §2, §3, §4, §5, §6, §7

For experiment [6], the system named is E. coli C1162. The conditions noted are these: Escherichia coli, APH(3′)-Ia.
From the text: as §1, §2, §3, §4, §5, §6, §7

Experiment [7] relates to P. aeruginosa PAO1. Conditions: Pseudomonas aeruginosa, AMEs: WT.
From the text: as §1, §2, §3, §4, §5, §6, §7

For experiment [8], the system named is A. baumanii 48F. Conditions: Acinetobacter baumannii; A. boumanii 48F; ANT(2″)Ia, APH(3″)-Ib, APH(3′)-VIa, APH(6)-Id.
From the text: as §1, §2, §3, §4, §5, §6, §7

One may read the MIC90 as an inhibitory concentration at the 90% level, which refers to growth in some studies and to a panel of isolates in others. With `CN[C@@H]1[C@@H](O[C@H]2O[C@H](CO)[C@@H](N)[C@H](O)[C@H]2O)OC2C[C@@H](N)[C@@H](O[C@H]3[C@H](O)[C@@H](O)[C@H](N)C[C@@H]3N)OC2[C@@H]1O` (some centres unmarked) [Apramycin, apramycin, reference compound], the MIC90 in experiment [1] came to 8 µg/mL; in experiment [2], 32 µg/mL; in experiment [3], 8 µg/mL; in experiment [4] it was 8 µg/mL; in experiment [5], 32 µg/mL; in experiment [6], 8 µg/mL. Also, the MIC90 in experiment [7] was found to be 8 µg/mL; in experiment [8], 32 µg/mL.
